Measurements: patent publication US7807678B2, “Peptidomimetics of biologically active metallopeptides” (Palatin Technologies, Inc., priority 2001, dated 2010)

Columns and labels:
[1] = target: T1, MC1-R (B-16 mouse melanoma cells) (Mus musculus, UniProt Q01727); assay: Competitive inhibition binding assay, 125I-NDP-α-MSH, MC1-R; details: for Inhibition at 1 μM MC1-R: 1 μM compound, inhibition of 125I-NDP-α-MSH binding, mean of triplicates, results less than 0% reported as 0%
T1 construct: B-16 mouse melanoma cells (containing MC1-R); endogenous in cells; host or cells: B-16 mouse melanoma cells
Method: (§1) The competitive inhibition binding assay was conducted using membranes prepared from hMC3-R, hMC4-R, hMC5-R, and B-16 mouse melanoma cells (containing MC1-R) using 0.4 nM ^125I-NDP-α-MSH (New England Nuclear, Boston, Mass., USA) in 50 mM HEPES buffer containing 1 mM MgCl2, 2 mM CaCl2, and 5 mM KCl, at pH 7.2. The assay tube also contained a chosen concentration of the test peptidomimetic of this invention, generally 1 μM, for determining its efficacy in inhibiting the binding of ^125I-NDP-α-MSH to its receptor.
(§2) Incubation was for 90 minutes at room temperature, after which the assay mixture was filtered and the membranes washed three times with ice cold buffer. The filter was dried and counted in a gamma counter for remaining radioactivity bound to the membranes. 100% specific binding was defined as the difference in radioactivity (cpm) bound to cell membranes in the absence and presence of 1 μM α-MSH. […] Each assay was conducted in triplicate and the actual mean values are described.

MC3-R = MC3-R (Homo sapiens, UniProt P41968); assay: Competitive inhibition binding assay, 125I-NDP-α-MSH, MC3-R; design: expressed in transfected cells; details: for Inhibition at 1 μM MC3-R: 1 μM compound, inhibition of 125I-NDP-α-MSH binding, mean of triplicates, results less than 0% reported as 0%
Method: as §1, §2

MC5-R = MC5-R (Homo sapiens, UniProt P33032); assay: Competitive inhibition binding assay, 125I-NDP-α-MSH, MC5-R; design: expressed in transfected cells; details: for Inhibition at 1 μM MC5-R: 1 μM compound, inhibition of 125I-NDP-α-MSH binding, mean of triplicates, results less than 0% reported as 0%
Method: as §1, §2

MC4-R = MC4-R (Homo sapiens, UniProt P32245); assay: Competitive inhibition binding assay, 125I-NDP-α-MSH, MC4-R; design: expressed in transfected cells; details: for Inhibition at 1 μM MC4-R: 1 μM compound, inhibition of 125I-NDP-α-MSH binding, mean of triplicates, results less than 0% reported as 0%
Method: as §1, §2

Chain of MC4-R (P32245 whole entry): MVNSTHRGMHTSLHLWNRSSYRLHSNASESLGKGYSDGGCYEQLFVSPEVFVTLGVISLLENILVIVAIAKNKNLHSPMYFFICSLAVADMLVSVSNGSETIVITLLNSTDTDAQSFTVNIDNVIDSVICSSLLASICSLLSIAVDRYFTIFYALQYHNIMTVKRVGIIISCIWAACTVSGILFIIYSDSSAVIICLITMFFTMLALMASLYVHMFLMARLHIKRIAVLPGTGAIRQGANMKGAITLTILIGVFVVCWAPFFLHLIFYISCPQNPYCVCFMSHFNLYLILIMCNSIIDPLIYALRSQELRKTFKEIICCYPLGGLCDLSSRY
Chain of MC5-R (P33032 whole entry): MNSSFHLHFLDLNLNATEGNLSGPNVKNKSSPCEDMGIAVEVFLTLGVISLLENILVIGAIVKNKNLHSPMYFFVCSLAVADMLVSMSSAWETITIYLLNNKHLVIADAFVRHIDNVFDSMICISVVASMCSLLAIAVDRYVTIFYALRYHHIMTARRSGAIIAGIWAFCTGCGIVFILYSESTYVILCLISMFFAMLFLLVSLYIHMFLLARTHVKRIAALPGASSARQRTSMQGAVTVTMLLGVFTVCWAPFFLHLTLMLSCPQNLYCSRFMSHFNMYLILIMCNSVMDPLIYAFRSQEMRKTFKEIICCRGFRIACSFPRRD
Chain of MC3-R (P41968 whole entry): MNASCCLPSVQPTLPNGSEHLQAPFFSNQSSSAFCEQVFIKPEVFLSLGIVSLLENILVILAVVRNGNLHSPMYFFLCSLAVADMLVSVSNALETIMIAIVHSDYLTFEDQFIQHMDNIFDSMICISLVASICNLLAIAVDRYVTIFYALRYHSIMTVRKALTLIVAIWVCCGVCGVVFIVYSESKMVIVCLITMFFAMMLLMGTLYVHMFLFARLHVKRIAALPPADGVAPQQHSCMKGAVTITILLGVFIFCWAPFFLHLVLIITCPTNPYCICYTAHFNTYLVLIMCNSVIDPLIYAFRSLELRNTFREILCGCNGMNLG
T1 sequence (Q01727 whole entry): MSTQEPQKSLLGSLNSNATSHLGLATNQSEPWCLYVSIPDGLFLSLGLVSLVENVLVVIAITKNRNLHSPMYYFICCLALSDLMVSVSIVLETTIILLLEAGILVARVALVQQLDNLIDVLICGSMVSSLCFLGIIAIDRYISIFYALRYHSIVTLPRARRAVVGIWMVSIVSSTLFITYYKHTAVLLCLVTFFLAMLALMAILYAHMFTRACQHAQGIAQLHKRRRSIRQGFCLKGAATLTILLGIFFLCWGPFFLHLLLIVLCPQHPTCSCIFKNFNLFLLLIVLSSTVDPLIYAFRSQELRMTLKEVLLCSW

Row | Compound | Inhibition at 1 μM MC1-R [1] | Inhibition at 1 μM MC3-R (MC3-R) | Inhibition at 1 μM MC5-R (MC5-R) | Inhibition at 1 μM MC4-R (MC4-R) | inhibition at 1 µM [1] | inhibition at 1 µM (MC3-R) | inhibition at 1 µM (MC5-R) | inhibition at 1 µM (MC4-R)
1 | N=C(N)NCCCC[C@H]1C(=O)N(CCc2ccc3ccccc3c2)CCN1C(=O)[C@H](N)Cc1ccc(Cl)cc1Cl [Example 67] | 66% | 68% | 42% | 96% |  |  |  | 
2 | N[C@H](Cc1ccc(Cl)cc1Cl)C(=O)N1CCN(CCc2ccc3ccccc3c2)C(=O)[C@@H]1CCCNc1ncccn1 [Example 68] | 3% | 9% | 19% | 12% |  |  |  | 
3 | N[C@H](Cc1ccc(Cl)cc1Cl)C(=O)N1CCN(CCc2ccc3ccccc3c2)C(=O)[C@@H]1CCCNc1cc[nH]n1 [Example 69] | 20% | 8% | 12% | 3% |  |  |  | 
4 | N[C@H](Cc1ccc(Cl)cc1Cl)C(=O)N1CCN(CCc2ccc3ccccc3c2)C(=O)[C@@H]1CCCNc1nncs1 [Example 70] | 28% | 31% | 32% | 70% |  |  |  | 
5 | N=C(N)NCCCC[C@H]1C(=O)N(CCc2ccc3ccccc3c2)CCN1C(=O)[C@H](N)Cc1ccc2ccccc2c1 [Example 71] | 60% | 73% | 57% | 97% |  |  |  | 
6 | CNC(=N)NCCC[C@H]1C(=O)N(CCc2ccc3ccccc3c2)CCN1C(=O)[C@H](N)Cc1ccc(Cl)cc1Cl [Example 72] | 19% | 43% | 27% | 93% |  |  |  | 
7 | CCNC(=N)NCCC[C@H]1C(=O)N(CCc2ccc3ccccc3c2)CCN1C(=O)[C@H](N)Cc1ccc(Cl)cc1Cl [Example 73] | 14% | 35% | 24% | 91% |  |  |  | 
8 | CCCNC(=N)NCCCC1C(=O)N(CCc2ccc3ccccc3c2)CCN1C(=O)C(N)Cc1ccc(Cl)cc1Cl (stereo not shown) [Example 74] | 13% | 34% | 26% | 88% |  |  |  | 
9 | CC(C)NC(=N)NCCCC1C(=O)N(CCc2ccc3ccccc3c2)CCN1C(=O)C(N)Cc1ccc(Cl)cc1Cl (stereo not shown) [Example 75] | 37% | 40% | 28% | 85% |  |  |  | 
10 | N=C(N)NCCC[C@H]1C(=O)N(CCc2ccc3ccccc3c2)CCN1C(=O)COc1ccc(Cl)cc1Cl [Example 77] |  |  |  |  | 15% | 0% | 20% | 24%
11 | CCCCCCC(=O)N[C@@H](COCc1ccccc1)C(=O)N[C@H](Cc1ccc(Cl)cc1)C(=O)N1CCN(CCc2c[nH]c3ccccc23)C(=O)[C@@H]1CCCCN [Example 78] | 96% | 72% | 99% | 99% |  |  |  | 

More lines, now with the values ahead:

Row | Inhibition at 1 μM MC1-R [1] | Inhibition at 1 μM MC3-R (MC3-R) | Inhibition at 1 μM MC5-R (MC5-R) | Inhibition at 1 μM MC4-R (MC4-R) | inhibition at 1 µM [1] | inhibition at 1 µM (MC3-R) | inhibition at 1 µM (MC5-R) | inhibition at 1 µM (MC4-R) | Compound
12 | 90% | 14% | 86% | 81% |  |  |  |  | NCCCC[C@H]1C(=O)N2C(CC[C@@H]2COc2ccc3ccccc3c2)N1C(=O)[C@@H](Cc1ccc(Cl)cc1)NC(=O)[C@@H](N)COCc1ccccc1 (stereo partly shown) [Example 79]
13 | 28% | 0% | 38% | 60% |  |  |  |  | NCCCC[C@H]1C(=O)N2C(CC[C@@H]2COc2ccc3ccccc3c2)N1C(=O)[C@@H](Cc1ccccc1Cl)NC(=O)[C@@H](N)COCc1ccccc1 (stereo partly shown) [Example 82]
14 | 42% | 2% | 38% | 89% |  |  |  |  | NCCCC[C@H]1C(=O)N2C(CC[C@@H]2COc2ccc3ccccc3c2)N1C(=O)[C@@H](Cc1ccccc1Cl)NC(=O)[C@@H]1Cc2ccccc2CN1 (stereo partly shown) [Example 83]
15 | 44% | 0% | 37% | 74% |  |  |  |  | NCCCC[C@H]1C(=O)N2C(CC[C@@H]2COc2ccc3ccccc3c2)N1C(=O)[C@@H](Cc1ccccc1Cl)NC(=O)[C@@H]1C[C@@H](OCc2ccccc2)CN1 (stereo partly shown) [Example 84]
16 | 4% | 0% | 13% | 44% |  |  |  |  | NCCCC[C@H]1C(=O)N2C(CC[C@@H]2COc2ccc3ccccc3c2)N1C(=O)[C@@H](Cc1ccccc1Cl)NC(=O)[C@@H]1CC[C@H](c2ccccc2)N1 (stereo partly shown) [Example 85]
17 | 71% | 30% | 47% | 82% |  |  |  |  | CCCCCCC(=O)N[C@@H](COCc1ccccc1)C(=O)N[C@H](Cc1ccccc1Cl)C(=O)N1C2CC[C@H](COc3ccc4ccccc4c3)N2C(=O)[C@@H]1CCCCN (stereo partly shown) [Example 86]
18 | 66% | 8% | 46% | 57% |  |  |  |  | NCCCC[C@H]1C(=O)N2C(CC[C@@H]2COc2ccc3ccccc3c2)N1C(=O)[C@@H](Cc1ccccc1Cl)NC(=O)[C@H]1NCCc2ccccc21 (stereo partly shown) [Example 87]
19 | 48% | 0% | 20% | 37% |  |  |  |  | NCCCC[C@H]1C(=O)N2C(CC[C@@H]2COc2ccc3ccccc3c2)N1C(=O)[C@@H](Cc1ccccc1Cl)NC(=O)[C@@H]1NCCc2ccccc21 (stereo partly shown) [Example 88]
20 | 24% | 0% | 22% | 34% |  |  |  |  | NCCCC[C@H]1C(=O)N2C(CC[C@@H]2COc2ccc3ccccc3c2)N1C(=O)[C@@H](Cc1ccccc1Cl)NC(=O)C1(N)CCc2ccccc2C1 (stereo partly shown) [Example 89]
21 | 10% | 0% | 46% | 12% |  |  |  |  | NCCCC[C@H]1C(=O)N2C(CC[C@@H]2COc2ccc3ccccc3c2)N1C(=O)[C@@H](Cc1ccccc1Cl)NC(=O)[C@@H](N)C1Cc2ccccc2C1 (stereo partly shown) [Example 90]
22 | 21% | 0% | 17% | 0% |  |  |  |  | NCCCC[C@H]1C(=O)N2C(CC[C@@H]2COc2ccc3ccccc3c2)N1C(=O)[C@@H](Cc1ccccc1Cl)NC(=O)[C@@H]1C[C@H](Oc2ccc3ccccc3c2)CN1 (stereo partly shown) [Example 91]
23 | 7% | 0% | 21% | 22% |  |  |  |  | NCCCC[C@H]1C(=O)N2C(CC[C@@H]2COc2ccc3ccccc3c2)N1C(=O)[C@@H](Cc1ccccc1Cl)NC(=O)[C@@H]1C[C@H](Oc2ccccc2)CN1 (stereo partly shown) [Example 92]
24 | 47% | 12% | 18% | 79% |  |  |  |  | NCCCC[C@H]1C(=O)N2C(CC[C@@H]2COc2ccc3ccccc3c2)N1C(=O)[C@@H](Cc1ccccc1Cl)NC(=O)[C@H]1Cc2ccccc2CN1 (stereo partly shown) [Example 93]
25 | 34% | 0% | 14% | 47% |  |  |  |  | NCCCC[C@H]1C(=O)N2C(CC[C@@H]2COc2ccc3ccccc3c2)N1C(=O)[C@@H](Cc1ccccc1Cl)NC(=O)[C@@H]1Cc2ccccc2N1 (stereo partly shown) [Example 95]
